According to US6693165B2 (Merck & Co., Inc., priority 2000, dated 2004):
Numbered stars: 1 amine (or outer) side, 2 acyl side, 3 side chain; on linkers, the order of the positions; unused ones are H or OH. Bridge positions count the residues as written; N and C are the ends. Square brackets hold non-standard residues; d marks the D form. Peptide text beside a SMILES is read from it. dPhe(4-tBu) = CC(C)(C)c1ccc(C[C@@H](N)C(=O)O)cc1; dPhe(4-Cl) = N[C@H](Cc1ccc(Cl)cc1)C(=O)O; dPhe(4-F) = N[C@H](Cc1ccc(F)cc1)C(=O)O; d2Nal = N[C@H](Cc1ccc2ccccc2c1)C(=O)O; Maleoyl = O=C(/C=C\C(=O)[*:2])[*:1]; dBta = N[C@H](Cc1csc2ccccc12)C(=O)O; Suc = O=C(CCC(=O)[*:2])[*:1]; Dap = NC[C@H](N)C(=O)O

Legend:
[1] = rats; cited from earlier work
human MC5 receptor = molecular target: T1, human MC5 receptor (Homo sapiens, UniProt P33032); assay: Competitive binding assay, human MC5 receptor; conditions: CHO cell membranes expressing human MC5 receptor; 200 pM [125I]-NDP-α-MSH; three independent experiments; read-out: hMC-5R (binding data)
T1 construct: expressed in transfected cells; host or cells: Chinese hamster ovary (CHO) cells
Experimental: (§1) The peptides of the present invention were evaluated for antagonist activity in receptor binding assay. Crude membrane preparations were obtained from Chinese hamster ovary cells expressing human MC3, MC4, and MC5 receptors. Cells were rinsed with phosphate-buffered saline (PBS) lacking CaCl2 or MgCl2 (Life Technologies, Gaithersburg, Md., USA), and then detached with enzyme-free dissociation media (Specialty Media, Lavellette, N.J., USA). Cells were pelleted at 2800×g for 10 min and resuspended in membrane buffer (20 mM Tris, pH 7.2, 5 mM ethylenediaminetetraacetic acid) with 5 μg/ml leupeptin, 5 μg/ml aprotinin, 40 μg/ml bacitracin, and 25 μg/ml pefabloc (Boehringer Mannheim). The cells were […] with 10 strokes by using a motor-driven Teflon-coated pestle in a glass homogenizer at low speed. The resulting cell suspension was centrifuged at 4100×g, 4° C., for 20 min. The pellet was resuspended in fresh membrane buffer with protease inhibitors, aliquoted, snap-frozen in liquid nitrogen, and stored at −80° C. The resulting crude membranes were titrated to determine the optimal level necessary for performing binding studies.
(§2) Binding reactions (total volume=250 μl) contained MBB (50 mM Tris, pH 7.2, 2 mM CaCl2, 1 mM MgCl2), 0.1% bovine serum albumin, crude membranes prepared from cells expressing human MC3, MC4, or MC5 receptor, 200 pM of [125I]-NDP-α-MSH (Amersham, Arlington Heighs, Ill., USA), and increasing concentrations of unlabeled test compounds dissolved in dimethylsulfoxide (final concentration=2%). Reactions were incubated for 1 h without shaking and then filtered through 96-well filter plates (Packard), presoaked in 1% polyethyleneimine. Filters were washed 3 times with TNE buffer (50 mM Tris, pH 7.4, 5 mM ethylene-diaminetetraacetic acid, 150 mM NaCl), dried and counted by using Microscint-20 in a Topcount scintillation counter (Packard).

human MC3 receptor = human MC3 receptor (Homo sapiens, UniProt P41968); assay: Competitive binding assay, human MC3 receptor; conditions: hMC-3R (binding data), CHO cell membranes expressing human MC3 receptor; 200 pM [125I]-NDP-α-MSH; three independent experiments
human MC4 receptor = molecular target: T2, human MC4 receptor (Homo sapiens, UniProt P32245); assay: Competitive binding assay, human MC4 receptor; conditions: for IC50: CHO cell membranes expressing human MC4 receptor, 200 pM [125I]-NDP-α-MSH, three independent experiments, read-out: hMC-4R (binding data); for 3:4: selectivity ratio of hMC-3R to hMC-4R binding values; for 5:4: selectivity ratio of hMC-5R to hMC-4R binding values
T2 construct: expressed in transfected cells; host or cells: Chinese hamster ovary (CHO) cells
Experimental: as §1, §2

T2 sequence (P32245 whole entry): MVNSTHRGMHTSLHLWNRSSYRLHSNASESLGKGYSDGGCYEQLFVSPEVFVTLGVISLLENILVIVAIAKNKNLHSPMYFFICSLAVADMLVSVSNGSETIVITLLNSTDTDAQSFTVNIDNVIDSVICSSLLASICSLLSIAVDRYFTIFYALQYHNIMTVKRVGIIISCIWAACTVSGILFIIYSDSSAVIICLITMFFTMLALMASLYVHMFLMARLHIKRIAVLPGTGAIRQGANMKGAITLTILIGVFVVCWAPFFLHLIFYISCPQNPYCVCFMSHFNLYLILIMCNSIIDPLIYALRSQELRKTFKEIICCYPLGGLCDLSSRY
T1 sequence (P33032 whole entry): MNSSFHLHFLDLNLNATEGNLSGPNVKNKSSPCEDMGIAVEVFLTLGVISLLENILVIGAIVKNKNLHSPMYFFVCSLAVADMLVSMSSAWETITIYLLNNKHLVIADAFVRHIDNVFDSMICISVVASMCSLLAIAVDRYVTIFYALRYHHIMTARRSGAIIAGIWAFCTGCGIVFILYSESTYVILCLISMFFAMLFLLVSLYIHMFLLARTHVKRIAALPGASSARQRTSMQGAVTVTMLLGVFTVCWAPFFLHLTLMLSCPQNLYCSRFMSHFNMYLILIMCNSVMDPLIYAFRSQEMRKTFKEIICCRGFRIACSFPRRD
Chain of human MC3 receptor (P41968 whole entry): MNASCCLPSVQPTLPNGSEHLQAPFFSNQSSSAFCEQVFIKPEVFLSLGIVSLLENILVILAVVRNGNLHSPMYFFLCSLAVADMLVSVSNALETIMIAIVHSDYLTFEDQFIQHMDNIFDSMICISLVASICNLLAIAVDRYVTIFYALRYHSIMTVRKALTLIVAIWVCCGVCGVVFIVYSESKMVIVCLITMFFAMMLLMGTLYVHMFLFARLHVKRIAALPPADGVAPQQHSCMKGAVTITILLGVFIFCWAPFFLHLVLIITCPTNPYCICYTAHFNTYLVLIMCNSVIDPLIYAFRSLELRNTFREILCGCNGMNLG

| Compound | body weight [1] | food intake [1] | IC50 (human MC5 receptor) [nM] | IC50 (human MC3 receptor) [nM] | IC50 (human MC4 receptor) [nM] | 3:4 (human MC4 receptor) | 5:4 (human MC4 receptor) |
| --- | --- | --- | --- | --- | --- | --- | --- |
| SHU9119 | increased | increased |  |  |  |  |  |
| N=C(N)NCCC[C@@H]1NC(=O)[C@@H](Cc2ccc3ccccc3c2)NC(=O)[C@H](Cc2c[nH]cn2)NC(=O)CCC(=O)NC[C@@H](C(N)=O)NC(=O)[C@H](Cc2c[nH]c3ccccc23)NC1=O [Example 8] (H[d2Nal]RW[Dap]-NH2; linker N-5 via Suc) |  |  | 71 ± 8.4 | 19 ± 1.5 | 0.2 ± 0.03 | 95 | 355 |
| CC(=O)N[C@H]1CC(=O)NCCCC[C@@H](C(N)=O)NC(=O)[C@H](Cc2c[nH]c3ccccc23)NC(=O)[C@H](CCCNC(=N)N)NC(=O)[C@@H](Cc2ccc3ccccc3c2)NC1=O [Example 6] (Ac-D[d2Nal]RWK-NH2; lactam 1-5) |  |  | 1100 ± 150 | 220 ± 6.7 | 4.7 ± 0.6 | 46 | 234 |
| N=C(N)NCCC[C@@H]1NC(=O)[C@@H](Cc2ccc(Cl)cc2)NC(=O)CCC(=O)NCCCC[C@@H](C(N)=O)NC(=O)[C@H](Cc2c[nH]c3ccccc23)NC1=O [Example 17] ([dPhe(4-Cl)]RWK-NH2; linker N-4 via Suc) |  |  | 440 ± 240 | 570 ± 290 | 3.5 ± 0.3 | 163 | 126 |
| MTII |  | reduced |  |  |  |  |  |
| N=C(N)NCCC[C@@H]1NC(=O)[C@@H](Cc2ccc3ccccc3c2)NC(=O)[C@H](Cc2c[nH]cn2)NC(=O)CCC(=O)NCCCC[C@@H](C(N)=O)NC(=O)[C@H](Cc2c[nH]c3ccccc23)NC1=O [Example 7] (H[d2Nal]RWK-NH2; linker N-5 via Suc) |  |  | 200 ± 3.6 | 52 ± 7.9 | 1 ± 0.1 | 52 | 200 |
| NCCCC[C@@H]1NC(=O)[C@@H](Cc2ccc3ccccc3c2)NC(=O)CCC(=O)NCCCC[C@@H](C(N)=O)NC(=O)[C@H](Cc2c[nH]c3ccccc23)NC1=O [Example 20] ([d2Nal]KWK-NH2; linker N-4 via Suc) |  |  | 2100 ± 500 | 3700 ± 1200 | 44 ± 7 | 84 | 48 |
| CC(C)(C)c1ccc(C[C@H]2NC(=O)CCC(=O)NCCCC[C@@H](C(N)=O)NC(=O)[C@H](Cc3c[nH]c4ccccc34)NC(=O)[C@H](CCCNC(=N)N)NC2=O)cc1 [Example 14] ([dPhe(4-tBu)]RWK-NH2; linker N-4 via Suc) |  |  | 2500 ± 1000 | 1500 ± 1100 | 46 ± 6 | 37 | 54 |
| N=C(N)NCCC[C@@H]1NC(=O)[C@@H](Cc2csc3ccccc23)NC(=O)CCC(=O)NCCCC[C@@H](C(N)=O)NC(=O)[C@H](Cc2c[nH]c3ccccc23)NC1=O [Example 16] ([dBta]RWK-NH2; linker N-4 via Suc) |  |  | 3000 ± 1000 | 5600 ± 3900 | 69 ± 12 | 81 | 44 |
| N=C(N)NCCC[C@@H]1NC(=O)[C@@H](Cc2ccc3ccccc3c2)NC(=O)C2CC2C(=O)NCCCC[C@@H](C(N)=O)NC(=O)[C@H](Cc2c[nH]c3ccccc23)NC1=O (single isomer, unassigned) [11 a] |  |  | 190 ± 37 | 130 ± 16 | 0.6 ± 0.1 | 216 | 316 |
| HS024 | increase | increase |  |  |  |  |  |
| N=C(N)NCCC[C@@H]1NC(=O)[C@@H](Cc2ccc3ccccc3c2)NC(=O)[C@H](Cc2c[nH]cn2)NC(=O)[C@@H](N)CC(=O)NCCCC[C@@H](C(N)=O)NC(=O)[C@H](Cc2c[nH]c3ccccc23)NC1=O [Example 3] |  |  | 24 ± 6.7 | 16 ± 5.2 | 1.7 ± 0.8 | 9 | 14 |
| N=C(N)NCCC[C@@H]1NC(=O)[C@@H](Cc2ccc3ccccc3c2)NC(=O)[C@H](CCCCN)NC(=O)CCC(=O)NCCCC[C@@H](C(N)=O)NC(=O)[C@H](Cc2c[nH]c3ccccc23)NC1=O [Example 24] (K[d2Nal]RWK-NH2; linker N-5 via Suc) |  |  | 10000 ± 8700 | 3000 ± 1100 | 40 ± 5 | 75 | 250 |
| N=C(N)NCCC[C@@H]1NC(=O)[C@@H](Cc2ccc3ccccc3c2)NC(=O)/C=C\C(=O)NCCCC[C@@H](C(N)=O)NC(=O)[C@H](Cc2c[nH]c3ccccc23)NC1=O [Example 12] ([d2Nal]RWK-NH2; linker N-4 via Maleoyl) |  |  |  |  |  | 300 | 270 |
| N=C(N)NCCC[C@@H]1NC(=O)[C@@H](Cc2ccc(F)cc2)NC(=O)CCC(=O)NCCCC[C@@H](C(N)=O)NC(=O)[C@H](Cc2c[nH]c3ccccc23)NC1=O [Example 19] ([dPhe(4-F)]RWK-NH2; linker N-4 via Suc) |  |  | 10000 ± 2000 | 4800 ± 1000 | 70 ± 10 | 69 | 143 |
| N=C(N)NCCC[C@@H]1NC(=O)[C@@H](Cc2ccc3ccccc3c2)NC(=O)C2CC2C(=O)NCCCC[C@@H](C(N)=O)NC(=O)[C@H](Cc2c[nH]c3ccccc23)NC1=O (single isomer, unassigned) [11 b] |  |  | 540 ± 230 | 270 ± 24 | 1.6 ± 0.2 | 168 | 337 |
